The values below come from patent EP0046377A1, “Cycloalkenylcarboxamido derivatives of tetramisole, their preparation and use in medicine” (BEECHAM GROUP PLC, priority 1980, dated 1982).

What all share (format): in vivo
The subject of one test is Nematospiroides dubius. Nature of the test: Oral administration to mice infected with Nematospiroides dubius; % reduction in worm numbers versus untreated infected controls. The note with it: % reduction in numbers of worms vs untreated infected controls; for inhibition in vivo at 5 mg/kg / inhibition in vivo at 50 mg/kg: Heligmosomoides polygyrus. Here is the method: The compounds of Examples 1 to 15 were each administered orally to mice infected with Nematospiroides dubius at various dosages. Activity was calculated as % reduction in the numbers of worms in treated as opposed to control (untreated, infected) animals.

In a further test the test system is Fluke. Nature of the test: Test to demonstrate fluke activity in an artificially infected sheep. The conditions noted are these: sheep infected with 100 metacercariae, treated orally at 30 mg/kg 4-5 months later. Here is the method: A sheep was artificially infected with 100 metacercariae and 4 - 5 months later was treated, orally, with 6-[3-(3-cyclohexen-1-ylcarboxamido)-phenyl7-2,3,5,6-tetrahydroimidazo [2,1-b]thiazole at 30 mg/kg.

For another test, the system named is Sheep Roundworms. Put plainly: Activity against sheep roundworms (mixed roundworm infection). On the procedure: (§1) A single subcutaneous injection of 5 mg/kg of the laevo amide of Example 12a, as a solution of its hydrochloride (in a mixture of propylene glycol, 70%; benzyl alcohol, 4%; and made up to 100% with water), to a sheep with a mixed roundworm infection, removed >99.9% of all worms present and was 100% active against lungworm.

The next test has as its system lungworm. Nature of the test: Activity against lungworm in a sheep with mixed roundworm infection. The note with it: single subcutaneous injection of 5 mg/kg, solution of hydrochloride. Here is the method: as §1
The test system of the next test is adult Brugia pahangi. Put plainly: Activity against Brugia pahangi in the cat (macrofilaricidal activity). The conditions noted are these: five daily doses at 5 mg/kg s.c. Here is the method: Five daily doses of the laevo amide of Example 12a administered at 5 mg/kg s.c. to a cat infected with adult Brugia pahangi was 100% effective against this parasite.
A further test relates to ascarids. Nature of the test: Activity against dog parasites: ascarids. The note with it: single oral dose of 7.5 mg/kg. On the procedure:
(§2) A single oral dose of 7.5 mg/kg of the laevo amide of Example 12a to a dog was 100% effective against ascarids, hookworm and whipworm.

The subject of the next test is hookworm. Nature of the test: Activity against dog parasites: hookworm. The note with it: single oral dose of 7.5 mg/kg. Here is the method: as §2
The test system of the next test is whipworm. Put plainly: Activity against dog parasites: whipworm. The conditions noted are these: single oral dose of 7.5 mg/kg. On the procedure:
as §2

Where a name gives a salt, the structure may show the parent alone.

In turn, `O=C(Nc1cccc(C2CN3CCSC3=N2)c1)C1CC=CCC1` (racemic) [Example 1] came in with an inhibition in vivo at 5 mg/kg with Nematospiroides dubius (Dose 5 mg/kg) of 55%. Also, the inhibition in vivo at 50 mg/kg in the test on Nematospiroides dubius (Dose 50 mg/kg) is 99%. Moreover, the “activity (post-mortem fluke worm counts)” value with Fluke was above 95%. In addition, in the test with Fluke (3-4 days after dosing), the Fluke egg counts entry is given as “zero”. Also, the removal of roundworms result in the test with Sheep Roundworms (single oral dose of 15 mg/kg, aqueous solution of hydrochloride salt) is listed as “removed all roundworms present”.
In the test with Nematospiroides dubius (Dose 5 mg/kg), `CC1(C)C=C(C(=O)Nc2cccc(C3CN4CCSC4=N3)c2)C=CC1` (stereo not shown) [Example 2, 6-[3-(3,3-dimethyl-1,5-cyclohexadien-1-ylcarboxamido)phenyl]-2,3,5,6-tetrahydroimidazo[-2,1-b]thiazole hydrochloride] showed an inhibition in vivo at 5 mg/kg of 57%. In addition, the inhibition in vivo at 50 mg/kg with Nematospiroides dubius (Dose 50 mg/kg) worked out at 99%.
For `O=C(Nc1cccc(C2CN3CCSC3=N2)c1)C1=CCC=CC1` (stereo not shown) [Example 3], the Activity % stood at 58% in the test on Nematospiroides dubius (Dose 5 mg/kg) and 100% in the test with Nematospiroides dubius (Dose 50 mg/kg).
On to `O=C(Nc1cccc(C2CN3CCSC3=N2)c1)C1C=CCC1` (stereo not shown) [Example 4, 6-[3-(2-cyclopenten-1-ylcarboxamido)phenyl]-2,3,5,6-tetrahydroimidazo[2,1-b]thiazole], for which, in the test on Nematospiroides dubius (Dose 5 mg/kg), the inhibition in vivo at 5 mg/kg was 100%. The same compound returned an inhibition in vivo at 50 mg/kg with Nematospiroides dubius (Dose 50 mg/kg) of 100%.
As to `O=C(Nc1cccc(C2CN3CCSC3=N2)c1)C1C=CCCC1` (stereo not shown) [Example 5], in the test on Nematospiroides dubius (Dose 5 mg/kg), the inhibition in vivo at 5 mg/kg was 65%. The compound further returned an inhibition in vivo at 50 mg/kg in the test on Nematospiroides dubius (Dose 50 mg/kg) of 100%.
For `O=C(Nc1cccc(C2CN3CCSC3=N2)c1)C1=CC2(CC=C1)CCCC2` (stereo not shown) [Example 6], in that order: 45% and 100%.
In the case of `CC1C=CCCC1C(=O)Nc1cccc(C2CN3CCSC3=N2)c1` (stereo not shown) [Example 7], in the test with Nematospiroides dubius (Dose 5 mg/kg), testing at 5 mg/kg gave an inhibition in vivo of 55%. This compound also returned an inhibition in vivo at 50 mg/kg with Nematospiroides dubius (Dose 50 mg/kg) of 100%.
In turn, `CC1C=CCC(C(=O)Nc2cccc(C3CN4CCSC4=N3)c2)C1` (stereo not shown) [Example 8] had an inhibition in vivo at 5 mg/kg with Nematospiroides dubius (Dose 5 mg/kg) of 59%. For the same compound, the inhibition in vivo at 50 mg/kg in the test with Nematospiroides dubius (Dose 50 mg/kg) stood at 99%.
The like results for `O=C(Nc1cccc(C2CN3CCSC3=N2)c1)C1=CCCCC1` (stereo not shown) [Example 9] were, in that order, 76% and 99%.
For `O=C(Nc1cccc(C2CN3CCSC3=N2)c1)C1=CCCCCC1` (stereo not shown) [Example 10], in that order: 90% and 100%.
In the case of `O=C(Nc1cccc(C2CN3CCSC3=N2)c1)C1CC=CC1` (stereo not shown) [Example 11], the inhibition in vivo at 5 mg/kg in the test on Nematospiroides dubius (Dose 5 mg/kg) was determined as 84%. Moreover, the inhibition in vivo at 50 mg/kg in the test with Nematospiroides dubius (Dose 50 mg/kg) was 100%.
Take `O=C(Nc1cccc(C2CN3CCSC3=N2)c1)C1=CC2(CC=CCC2)CC=C1` (stereo not shown) [Example 12]: at 5 mg/kg the inhibition in vivo with Nematospiroides dubius (Dose 5 mg/kg) was 19%. In the test with Nematospiroides dubius (Dose 50 mg/kg), the inhibition in vivo at 50 mg/kg was 94%.
Take `O=C(Nc1cccc(C2CN3CCSC3=N2)c1)C1CC=CCC1` (stereo not drawn) [Example 14a, 6-[3-(3-cyclohexen-1-ylcarboxamido)phenyl] -2,3,5,6-tetrahydroimidazo[2,l-b]thiazole]: the Activity % with Nematospiroides dubius (Dose 2.5 mg/kg) and in the test with Nematospiroides dubius (Dose 10 mg/kg) was 100% in each case. In the test on Sheep Roundworms (single subcutaneous injection of 5 mg/kg, solution of hydrochloride in propylene glycol 70%/benzyl alcohol 4%/water), this compound showed a worms removed above 99.9%. The compound also came in with an active against lungworm in the test with lungworm of 100%. The “effective against Brugia pahangi” value with adult Brugia pahangi came out at 100%. In addition, the effective against ascarids in the test on ascarids is 100%. This compound also had an effective against hookworm with hookworm of 100%. For the same compound, the effective against whipworm with whipworm was 100%.
`O=C(Nc1cccc(C2CN3C=CSC3=N2)c1)C1CC=CCC1` (stereo not shown) [Example 15] had an inhibition in vivo at 5 mg/kg with Nematospiroides dubius (Dose 5 mg/kg) of 71%. In addition, in the test on Nematospiroides dubius (Dose 50 mg/kg), the inhibition in vivo at 50 mg/kg was 100%.
